The values that follow come from patent US4751295A, “Cephalosporin derivatives” (Bristol-Myers Company, priority 1986, dated 1988).

Values after ≈ are worked out from the molar mass of the structure shown. Counter-ions that a name gives are not always drawn. Like-named read-outs stand apart in the source and are kept apart here.

Data set [1] in a line: blood levels upon intramuscular administration to mice. Format: in vivo. The note with it: mouse, im, 20 mg/kg. Here is the method:
Table 2, below, gives the Protective Dose50 (PD50) in mice for a number of the compounds of Formula I against selected microorganisms. Table 3 gives blood levels of various compounds of Formula I upon intramuscular administration of the test compounds to mice at a dosage of 20 mg/kg.

Data set [2] has as its system Cephalothinresistant E. coli (3 strains) and Kl. pneumoniae (2 strains). Put plainly: MIC, two-fold serial agar dilution, group (G-)-Ib. Format: cell-based. The note with it: 5 strains; for MIC: Escherichia coli, read-out: Geometric Mean of MIC, (G-)-Ib, Mueller-Hinton agar; for Geometric Mean of MIC, (G-)-Ib: Mueller-Hinton agar. The protocol:
(§1) In the primary evaluation of the compounds of this invention, the Minimum Inhibitory Concentrations (MIC's) of the compounds were determined by the two-fold serial agar dilution method in Mueller-Hinton agar against 32 strains of test organisms in six groups.
(G-)Ib: Cephalothinresistant E. coli (3 strains) and Kl. pneumoniae (2

The test system of data set [3] is M. morganii (1 strain), Ent. cloacae (2 strains) and Ser. marcescens (2 strains). Put plainly: MIC, two-fold serial agar dilution, group (G-)-II. Format: cell-based. The note with it: Mueller-Hinton agar, 5 strains; for MIC: read-out: Geometric Mean of MIC, (G-)-II. The protocol: as §1
(G-)II: M. morganii (1 strain), Ent. cloacae (2 strains) and Ser.
A general note: In agar dilution the substance is mixed into plates at graded concentrations.

The subject of data set [4] is Ps. aeruginosa (7 strains). The data set is described as follows: MIC, two-fold serial agar dilution, group (G-)-III. The note with it: Mueller-Hinton agar; for MIC: Pseudomonas aeruginosa, read-out: Geometric Mean of MIC, (G-)-III. Format: cell-based. The protocol: as §1
(G-)III: Ps. aeruginosa (7 strains)

Data set [5] has as its system Penicillinresistant S. aureus (5 strains). Put plainly: MIC, two-fold serial agar dilution, group (G+)-Ib. Conditions: Mueller-Hinton agar, 5 strains; for MIC: Staphylococcus aureus, read-out: Geometric Mean of MIC, (G+)-Ib. Format: cell-based. The protocol:
as §1
(G+)Ib: Penicillinresistant S. aureus (5 strains)

In data set [6] the test system is Cephalothinsensitive E. coli (2 strains), Kl. pneumoniae (1 strain) and Pr. mirabilis (2 strains). Put plainly: MIC, two-fold serial agar dilution, group (G-)-Ia. Format: cell-based. Conditions: Mueller-Hinton agar, 5 strains; for MIC: read-out: Geometric Mean of MIC, (G-)-Ia. Here is the method: as §1
(G+)Ia: Cephalothinsensitive E. coli (2 strains), Kl. pneumoniae (1
strain) and Pr. mirabilis (2 strains)

For data set [7], the system named is Penicillinsensitive S. aureus (5 strains). The data set is described as follows: MIC, two-fold serial agar dilution, group (G+)-Ia. Format: cell-based. Conditions: for MIC: Staphylococcus aureus, read-out: Geometric Mean of MIC, (G+)-Ia. The protocol:
as §1
(G+)Ia: Penicillinsensitive S. aureus (5 strains)

Take `CON=C(C(=O)NC1C(=O)N2C(C(=O)[O-])=C(C=CC[N+](C)(C)C)CS[C@H]12)c1nsc(N)n1` (stereo partly drawn) [Compound I-1D, 7-[2-(5-Amino-1,2,4-thiadiazol-3-yl)-2-methoxyiminoacetamido]-3-(3-trimethylammonio-1-propen-1-yl)-3-cephem-4-carboxylate]: in data set [1], the AUC (commonly concentration integrated over time) is 11000 ng·h/mL; the Cmax (in general, the highest concentration seen after dosing) was 20000 ng/mL; the half-life (commonly the time needed for the level to fall by half in the phase considered) stood at 19 min.

Regarding `CON=C(C(=O)NC1C(=O)N2C(C(=O)[O-])=C(/C=C/C[n+]3cccc(N)c3)CSC12)c1nsc(N)n1` (stereo not drawn) [Compound I-1E, 7-[2-(5-Amino-1,2,4-thiadiazol-3-yl)-2-methoxyiminoacetamido]-3-[3-(3-aminopyridinio)-1-propen-1-yl]-3-cephem-4-carboxylate], the MIC (in general, the lowest concentration found to suppress growth) amounted to 0.029 µg/mL (≈ 0.0561 µM) in data set [2]; 0.1 µg/mL (≈ 0.194 µM) in data set [3]; 1.4 µg/mL (≈ 2.71 µM) in data set [4]; 0.4 µg/mL (≈ 0.774 µM) in data set [5]; 0.0094 µg/mL (≈ 0.0182 µM) in data set [6]; 0.2 µg/mL (≈ 0.387 µM) in data set [7].

Turning to `CON=C(C(=O)NC1C(=O)N2C(C(=O)[O-])=C(/C=C/C[n+]3cccc(NC=O)c3)CSC12)c1nsc(N)n1` (stereo not drawn) [Compound I-1F, 7-[2-(5-Amino-1,2,4-thiadiazol-3-yl)-2-methoxyiminoacetamido]-3-[3-(3-formylaminopyridinio)-1-propen-1-yl]-3-cephem-4-carboxylate], the MIC in data set [2] amounted to 0.033 µg/mL (≈ 0.0606 µM); in data set [3], 0.099 µg/mL (≈ 0.182 µM); in data set [4], 1.2 µg/mL (≈ 2.2 µM); in data set [5], 0.4 µg/mL (≈ 0.735 µM); in data set [6] it was 0.0094 µg/mL (≈ 0.0173 µM); in data set [7] (Mueller-Hinton agar, 5 strains), 0.15 µg/mL (≈ 0.275 µM).

Turning to `CON=C(C(=O)NC1C(=O)N2C(C(=O)[O-])=C(/C=C/C[n+]3cccc(CN)c3)CSC12)c1nsc(N)n1` (stereo not drawn) [Compound I-1I, 7-[2-(5-Amino-1,2,4-thiadiazol-3-yl)-2-methoxyiminoacetamido]-3-[3-(3-aminomethylpyridinio)-1-propen-1-yl]-3-cephem-4-carboxylate], the MIC in data set [2] was 0.2 µg/mL (≈ 0.377 µM); in data set [3], 0.69 µg/mL (≈ 1.3 µM); in data set [4], 3.1 µg/mL (≈ 5.84 µM); in data set [5], 1.6 µg/mL (≈ 3.02 µM); in data set [6], 0.1 µg/mL (≈ 0.188 µM); in data set [7] (Mueller-Hinton agar, 5 strains) it was 0.8 µg/mL (≈ 1.51 µM).

For `CON=C(C(=O)NC1C(=O)N2C(C(=O)[O-])=C(/C=C/C[n+]3ccc(CO)cc3)CSC12)c1nsc(N)n1` (stereo not drawn) [Compound I-1L, 7-[2-(5-Amino-1,2,4-thiadiazol-3-yl)-2-methoxyiminoacetamido]-3-[3-(4-hydroxymethylpyridinio)-1-propen-1-yl]-3-cephem-4-carboxylate], the MIC is 0.088 µg/mL (≈ 0.166 µM) in data set [2]; 0.15 µg/mL (≈ 0.282 µM) in data set [3]; 2.6 µg/mL (≈ 4.89 µM) in data set [4]; 0.61 µg/mL (≈ 1.15 µM) in data set [5]; 0.029 µg/mL (≈ 0.0546 µM) in data set [6]; 0.26 µg/mL (≈ 0.489 µM) in data set [7] (Mueller-Hinton agar, 5 strains).

Consider `CON=C(C(=O)NC1C(=O)N2C(C(=O)[O-])=C(/C=C/C[n+]3cccc(CC(=O)O)c3)CSC12)c1nsc(N)n1` (stereo not drawn) [Compound I-1P, 7-[2-(5-Amino-1,2,4-thiadiazol-3-yl)-2-methoxyiminoacetamido]-3-[3-(3-carboxymethylpyridinio)-1-propenyl]-3-cephem-4-carboxylate], for which the MIC in data set [2] is 0.087 µg/mL (≈ 0.155 µM); in data set [3], 0.34 µg/mL (≈ 0.608 µM); in data set [4] it was 14 µg/mL (≈ 25 µM); in data set [5] it was 1.6 µg/mL (≈ 2.86 µM); in data set [6], 0.013 µg/mL (≈ 0.0232 µM); in data set [7] (Mueller-Hinton agar, 5 strains) it was 0.8 µg/mL (≈ 1.43 µM).

Turning to `CON=C(C(=O)NC1C(=O)N2C(C(=O)[O-])=C(/C=C/C[n+]3ccc(SCC(=O)O)cc3)CSC12)c1nsc(N)n1` (stereo not drawn) [Compound I-1Q, 7-[2-(5-Amino-1,2,4-thiadiazol-3-yl)-2-methoxyiminoacetamido]-3-[3-(4-carboxymethylthiopyridinio)-1-propenyl]-3-cephem-4-carboxylate], the MIC worked out at 0.044 µg/mL (≈ 0.0744 µM) in data set [2]; 0.23 µg/mL (≈ 0.389 µM) in data set [3]; 14 µg/mL (≈ 23.7 µM) in data set [4]; 0.92 µg/mL (≈ 1.55 µM) in data set [5]; 0.0095 µg/mL (≈ 0.0161 µM) in data set [6]; 0.7 µg/mL (≈ 1.18 µM) in data set [7] (Mueller-Hinton agar, 5 strains).

On to `CCON=C(C(=O)NC1C(=O)N2C(C(=O)[O-])=C(/C=C/C[n+]3ccc(C(N)=O)cc3)CSC12)c1nsc(N)n1` (stereo not drawn) [Compound I-2H, 7-[2-(5-Amino-1,2,4-thiadiazol-3-yl)-2-ethoxyiminoacetamido]-3-[3-(4-carbamoylpyridinio)-1-propen-1-yl]-3-cephem-4-carboxylate], for which the MIC in data set [2] amounted to 0.057 µg/mL (≈ 0.102 µM); in data set [3], 0.15 µg/mL (≈ 0.269 µM); in data set [4] it was 1.4 µg/mL (≈ 2.51 µM); in data set [5], 0.4 µg/mL (≈ 0.716 µM); in data set [6], 0.014 µg/mL (≈ 0.0251 µM); in data set [7], 0.2 µg/mL (≈ 0.358 µM).

As to `CON=C(C(=O)NC1C(=O)N2C(C(=O)[O-])=C(C=CC[N+]3(C)CCCC3)CSC12)c1nsc(N)n1` (stereo not drawn) [I-1A E/Z = 1/1, 7-[2-(5-Amino-1,2,4-thiadiazol-3-yl)-2-methoxyiminoacetamido]-3-[3-(1-methylpyrrolidinio)-1-propen-1-yl]-3-cephem-4-carboxylate], the “Geometric Mean of MIC, (G-)-Ib” value in data set [2] stood at 0.15 µg/mL. In addition, the minimum inhibitory concentration (MIC) in data set [3] was 0.23 µg/mL (≈ 0.453 µM); in data set [4], 2.4 µg/mL (≈ 4.73 µM); in data set [5] it was 0.7 µg/mL (≈ 1.38 µM); in data set [6], 0.05 µg/mL (≈ 0.0985 µM); in data set [7] (Mueller-Hinton agar, 5 strains), 0.26 µg/mL (≈ 0.512 µM).

In the case of `CON=C(C(=O)NC1C(=O)N2C(C(=O)[O-])=C(C=CC[N+]3(C)CCCC3)CSC12)c1nsc(N)n1` (stereo not drawn) [I-1A E/Z = 7/1, 7-[2-(5-Amino-1,2,4-thiadiazol-3-yl)-2-methoxyiminoacetamido]-3-[3-(1-methylpyrrolidinio)-1-propenyl]-3-cephem-4-carboxylate sulfate], the “Geometric Mean of MIC, (G-)-Ib” value in data set [2] (sulfate) was found to be 0.05 µg/mL. Besides, the “Geometric Mean of MIC, (G-)-II” value in data set [3] (sulfate) came to 0.17 µg/mL. In addition, the “Geometric Mean of MIC, (G-)-III” value in data set [4] (sulfate) was 1.4 µg/mL. Besides, in data set [5] (sulfate), the “Geometric Mean of MIC, (G+)-Ib” value worked out at 0.35 µg/mL. Also, the “Geometric Mean of MIC, (G-)-Ia” value in data set [6] (sulfate) came to 0.029 µg/mL. For the same compound, the “Geometric Mean of MIC, (G+)-Ia” value in data set [7] (Mueller-Hinton agar, 5 strains, sulfate) turned out to be 0.13 µg/mL.

As for `CON=C(C(=O)NC1C(=O)N2C(C(=O)[O-])=C(/C=C/C[n+]3ccccc3)CSC12)c1nsc(N)n1` (stereo not drawn) [I-1B E, 7-[2-(5-Amino-1,2,4-thiadiazol-3-yl)-2-methoxyiminoacetamido]-3-[3-pyridinio-1-propen-1-yl]-3-cephem-4-carboxylate], the MIC in data set [2] was 0.044 µg/mL (≈ 0.0877 µM); in data set [3] it was 0.11 µg/mL (≈ 0.219 µM); in data set [4], 1.6 µg/mL (≈ 3.19 µM); in data set [5], 0.4 µg/mL (≈ 0.798 µM); in data set [6] it was 0.016 µg/mL (≈ 0.0319 µM); in data set [7] it was 0.2 µg/mL (≈ 0.399 µM).

As to `CON=C(C(=O)NC1C(=O)N2C(C(=O)[O-])=C(C=CC[N+](C)(C)C)CS[C@H]12)c1nsc(N)n1` (stereo partly drawn) [I-1D E/Z = 1/1, 7-[2-(5-Amino-1,2,4-thiadiazol-3-yl)-2-methoxyiminoacetamido]-3-(3-trimethylammonio-1-propen-1-yl)-3-cephem-4-carboxylate], in data set [2], the “Geometric Mean of MIC, (G-)-Ib” value turned out to be 0.26 µg/mL. For the same compound, the MIC in data set [3] came out at 0.46 µg/mL (≈ 0.955 µM); in data set [4], 2.4 µg/mL (≈ 4.98 µM); in data set [6] it was 0.1 µg/mL (≈ 0.208 µM). In addition, the “Geometric Mean of MIC, (G+)-Ib” value in data set [5] came to 1.4 µg/mL. In data set [7] (Mueller-Hinton agar, 5 strains), the “Geometric Mean of MIC, (G+)-Ia” value is 0.61 µg/mL.

Turning to `CON=C(C(=O)NC1C(=O)N2C(C(=O)[O-])=C(C=CC[N+](C)(C)C)CS[C@H]12)c1nsc(N)n1` (stereo partly drawn) [I-1D E/Z = 10/1, 7-[2-(5-Amino-1,2,4-thiadiazol-3-yl)-2-methoxyiminoacetamido]-3-[3-trimethylammonio-1-propenyl]-3-cephem-4-carboxylate], the “Geometric Mean of MIC, (G-)-Ib” value in data set [2] is 0.076 µg/mL. The “Geometric Mean of MIC, (G-)-II” value in data set [3] was 0.26 µg/mL. In data set [4], the “Geometric Mean of MIC, (G-)-III” value turned out to be 1.3 µg/mL. In addition, the “Geometric Mean of MIC, (G+)-Ib” value in data set [5] is 0.53 µg/mL. Further, the “Geometric Mean of MIC, (G-)-Ia” value in data set [6] stood at 0.05 µg/mL. Also, the “Geometric Mean of MIC, (G+)-Ia” value in data set [7] (Mueller-Hinton agar, 5 strains) stood at 0.30 µg/mL.
